# Values of other authors as cited in patent publication US11975013B2, “Stable formulations comprising thiotepa” (SHORLA PHARMA LTD., priority 2020, dated 2024).
# Settings: reconstituted in water, stored longer than five days; EP 0 419 890
smiles,measurement,value
"S=P(N1CC1)(N1CC1)N1CC1 [thiotepa, N,N′,N″-triethylenethiophosphoramide]",potency on storage (in words),substantial loss of potency
